Patent publication US20170291890A1 (Epizyme, Inc., priority 2014, published 2017)

Columns and labels:
[1] = Solubility remark in Table 2 (compound insoluble, no IC50 given); assay type: physicochemical; details: Table 2, cell in place of 4A/4C/5A IC50
KDM5A = molecular target: T1, KDM5A (Homo sapiens, UniProt P29375); test: KDM5A Assay (SAMDI mass spectrometry demethylase assay); assay type: biochemical; details: C-terminal FLAG-tagged KDM5A 1-1090; class symbols; read-out: 5A IC50
T1 construct: C-terminal FLAG-tagged KDM5A^1-1090 was purchased from BPS Biosciences; FLAG (C); purchased BPS Biosciences
T1 sequence (P29375 1-1090): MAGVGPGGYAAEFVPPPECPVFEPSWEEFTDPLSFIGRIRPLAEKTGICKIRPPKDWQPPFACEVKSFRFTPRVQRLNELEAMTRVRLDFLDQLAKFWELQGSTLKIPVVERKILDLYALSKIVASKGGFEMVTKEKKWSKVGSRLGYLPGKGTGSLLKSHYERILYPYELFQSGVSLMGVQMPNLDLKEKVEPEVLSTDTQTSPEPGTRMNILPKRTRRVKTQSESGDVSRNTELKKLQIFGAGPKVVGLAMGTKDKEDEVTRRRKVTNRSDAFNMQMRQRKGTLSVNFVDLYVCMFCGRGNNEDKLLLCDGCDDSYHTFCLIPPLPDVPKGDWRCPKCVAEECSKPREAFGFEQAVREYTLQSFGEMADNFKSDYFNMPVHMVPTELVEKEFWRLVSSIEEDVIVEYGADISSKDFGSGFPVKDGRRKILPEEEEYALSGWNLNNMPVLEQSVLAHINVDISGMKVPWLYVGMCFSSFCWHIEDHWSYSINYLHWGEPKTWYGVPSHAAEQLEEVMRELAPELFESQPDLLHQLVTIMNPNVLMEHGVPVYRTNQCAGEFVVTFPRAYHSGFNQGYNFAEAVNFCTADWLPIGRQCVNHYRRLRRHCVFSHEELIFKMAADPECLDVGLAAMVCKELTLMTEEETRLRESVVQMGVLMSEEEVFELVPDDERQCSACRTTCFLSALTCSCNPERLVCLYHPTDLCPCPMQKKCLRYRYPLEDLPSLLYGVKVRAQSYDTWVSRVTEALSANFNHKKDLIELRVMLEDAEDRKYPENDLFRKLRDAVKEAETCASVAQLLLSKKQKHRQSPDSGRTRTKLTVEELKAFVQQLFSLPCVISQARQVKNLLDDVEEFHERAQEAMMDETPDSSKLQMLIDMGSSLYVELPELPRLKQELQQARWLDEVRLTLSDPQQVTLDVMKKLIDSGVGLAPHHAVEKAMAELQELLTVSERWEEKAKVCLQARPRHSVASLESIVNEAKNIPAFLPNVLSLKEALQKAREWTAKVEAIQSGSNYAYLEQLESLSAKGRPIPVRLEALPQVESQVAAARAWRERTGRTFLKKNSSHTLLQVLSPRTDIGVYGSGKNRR
Protocol: (§1) C-terminal FLAG-tagged KDM5A^1-1090 was purchased from BPS Biosciences. Peptides were synthesized by BioPeptide and all other reagents were purchased from Sigma-Aldrich at the highest level of purity possible. Assays were performed in a 50 μL volume in 384-well V-bottom polypropylene microplates (Greiner) at 25° C. Optimized 1× assay buffer was 50 mM HEPES (pH=8.0), 100 μM sodium ascorbate, 20 mM NaCl, 10 μM ammonium iron sulfate, 1 mM tris(2-carboxyethyl)phosphine (TCEP), 0.002% Tween-20, and 0.005% BSG. For compound screening, 35 μL of KDM5A^1-109° (final concentration, f.c.=20 nM) was added using a Multidrop Combi and preincubated with 1 μL of test compound (f.c.=10 μM) for 30 minutes and subsequently 15 μL of peptide with the following sequence NH2-ART[Kme-3]QTARKSTGGKA[K-Ahx-Biot]-amide (f.c.=250 nM) and 2-oxoglutarate (f.c.=15 μM) was added by Multidrop Combi to begin the reaction. Reactions proceeded for 150 minutes and were stopped by the addition of 5 μL of formic acid (f.c.=0.5%) using a Multidrop Combi and then analyzed by SAMDI Tech Inc.
(§2) SAMDI Tech analyzed all reactions using self-assembled monoloayer desorption/ionization technology as previously described (Gerard-Levin Z A, Scholle M D, Eisenberg A H, et al.: High-throughput screening of small molecule libraries using SAMDI mass spectrometry. ACS Comb Sci 2011; 13:347-350). Briefly, a 2 μL sample of the stopped demethylase reactions were transferred to a SAMDI array coated with 384 biotin-neutravidin spots using a 384-channel pipet station. The SAMDI arrays were incubated for 1 h in a humidified chamber, followed by washing of the surface with deionized ultra-filtered water (DIUF) and drying under nitrogen. A matrix of 30 mg/ml 2′,4′,6′-Trihydroxyacetophenone monohydrate (THAP) in acetone was applied using a TPP Mosquito 1.2 μL tip by dispensing 50 nL on each of the 384 spots on the array. SAMDI-MS was run using acquisition method ReflectorPositiveUTX. The % conversion of substrate to product was calculated using the AUC of the substrate and product peptide peaks.
(§3) An IC50 value was determined by contacting various concentrations of a test compound with one of the KDM4A, KDM4C or KDMSC enzyme constructs and plotting a dose-response curve which associates the amount of inhibition of the enzyme relative to the concentration of the test compound. From the curve, the IC50 value (which represents the concentration of the test compound necessary to inhibit maximal enzymatic activity by 50%) was determined. Additionally, the slope of the linear range of the plotted curve, which indicates the speed with which the curve rises between the minimum and maximum, was calculated.

KDM4C = molecular target: T2, KDM4C (Homo sapiens, UniProt Q9H3R0); test: KDM4C Assay (SAMDI mass spectrometry demethylase assay); assay type: biochemical; details: N-terminal GST-tagged KDM4C 2-372; class symbols; read-out: 4C IC50
T2 construct: N-terminal GST-tagged KDM4C^2-372 was purchased from BPS Biosciences; GST (N); purchased BPS Biosciences
T2 sequence (Q9H3R0 2-372): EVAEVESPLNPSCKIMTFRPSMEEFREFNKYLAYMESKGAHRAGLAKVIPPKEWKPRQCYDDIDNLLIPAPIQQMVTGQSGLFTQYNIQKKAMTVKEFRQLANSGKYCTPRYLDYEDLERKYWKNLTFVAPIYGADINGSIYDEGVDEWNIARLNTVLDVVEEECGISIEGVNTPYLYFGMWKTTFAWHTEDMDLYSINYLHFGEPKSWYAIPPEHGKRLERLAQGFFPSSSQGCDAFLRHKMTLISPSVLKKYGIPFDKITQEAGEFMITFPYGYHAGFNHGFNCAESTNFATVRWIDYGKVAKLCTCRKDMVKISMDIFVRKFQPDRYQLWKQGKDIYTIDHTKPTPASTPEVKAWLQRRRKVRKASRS
Protocol: as §1, with “N-terminal GST-tagged KDM4C^2-372” for “C-terminal FLAG-tagged KDM5A^1-1090”, “KDM4C^2-372” for “KDM5A^1-109°”, “f.c.=5” for “f.c.=20”, “NH2-ARTKQTAR(Kme3)STGGKAPRKQLA(K-Ahx-Biotin)-amide (f.c.=500” for “NH2-ART[Kme-3]QTARKSTGGKA[K-Ahx-Biot]-amide (f.c.=250”
as §2, §3

Compound	Solubility remark given instead of IC50 values [1]	IC50 (KDM5A) [µM]	IC50 (KDM4C) [µM]
Cc1ccccc1-n1ncc(Nc2cnccc2C(=O)O)c1C [Compound 50, 3-((5-methyl-1-(o-tolyl)-1H-pyrazol-4-yl)amino)isonicotinic acid]	Insoluble		
Cn1nc(-c2ccncc2)cc1Nc1cnccc1C(=O)O [Compound 44, 3-((1-methyl-3-(pyridin-4-yl)-1H-pyrazol-5-yl)amino) isonicotinic acid]	Insoluble		
Cc1c(Nc2cnccc2C(=O)O)cnn1CCN(C)C [Compound 108]		1 to 10	1 to 10
O=C(O)c1ccncc1Nc1c(-c2ccccc2)cnn1[C@H]1CNc2ccccc2C1 [Compound 137, (R)-3-(4-phenyl-1-(1,2,3,4-tetrahydroquinolin-3-yl)-1H-pyrazol-5-ylamino)isonicotinic acid]		10 to 100	10 to 100
Cc1c(Nc2cnccc2C(=O)O)nn(C)c1-c1ccccc1 [Compound 54, 3-((1,4-dimethyl-5-phenyl-1H-pyrazol-3-yl)amino)isonicotinic acid]	Insoluble		
